For 27 molecules, EC50 results are on record in patent US10059713B2 (Takeda Pharmaceutical Company Limited, priority 2014, dated 2018).

Structures are written as SMILES.

Chain of human GPR43 (O15552 whole entry): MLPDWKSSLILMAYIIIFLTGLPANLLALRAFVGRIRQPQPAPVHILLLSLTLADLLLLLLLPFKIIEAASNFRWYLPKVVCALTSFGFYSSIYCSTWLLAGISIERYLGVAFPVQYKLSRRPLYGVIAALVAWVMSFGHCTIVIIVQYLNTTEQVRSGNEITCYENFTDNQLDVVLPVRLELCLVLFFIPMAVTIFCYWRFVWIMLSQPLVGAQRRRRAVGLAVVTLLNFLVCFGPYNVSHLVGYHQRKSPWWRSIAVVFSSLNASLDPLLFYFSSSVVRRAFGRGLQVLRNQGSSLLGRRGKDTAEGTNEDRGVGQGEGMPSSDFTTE

The experiment concerns the target human GPR43 (Homo sapiens (Human), UniProt O15552). The experiment is described as follows: Ca-Flux functional assay: determination of agonist/positive allosteric modulator (PAM) activity. Format: cell-based. The conditions noted are these: CHO-K1 Gα16 cells stably expressing human GPR43; compound added with EC20 sodium acetate; intracellular Ca2+ by FLIPR; does not distinguish agonist from PAM. The gist of the method:
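CHO-K1 Gα16 cells stably expressing human GPR43, loaded with Calcium 5 dye 1 h; compounds (10-point half-log from 10 μM) added with sodium acetate at EC20. FLIPR calcium signal gave EC50, two wells per point; agonists and PAMs not distinguished.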
Regarding `CCC1CN(c2ncnc3c(S(=O)(=O)c4ccccc4)c(N)[nH]c23)CCO1` (stereo not drawn) [Example 79, 7-(benzenesulfonyl)-4-(2-ethylmorpholin-4-yl)-5H-pyrrolo[3,2-d]pyrimidin-6-amine], the EC50 (as a rule, the concentration giving half of the maximal effect) is 40 nM.
With `COc1ccc(S(=O)(=O)c2c(N)[nH]c3c(-c4ccccc4)ncnc23)cc1` [Example 76, 7-(4-methoxybenzenesulfonyl)-4-phenyl-5H-pyrrolo[3,2-d]pyrimidin-6-amine] the figure was 135 nM; with `Nc1[nH]c2c(C3=CCCCC3)ncnc2c1S(=O)(=O)C1CCCCC1` [Example 50, 4-(cyclohex-1-en-1-yl)-7-(cyclohexanesulfonyl)-5H-pyrrolo[3,2-d]pyrimidin-6-amine], 80 nM; with `Cc1nc(C2CCCCC2)c2[nH]c(N)c(S(=O)(=O)c3ccccc3)c2n1` [Example 40, 7-(benzenesulfonyl)-4-cyclohexyl-2-methyl-5H-pyrrolo[3,2-d]pyrimidin-6-amine], 55 nM.
With `C=C(C)c1ncnc2c(S(=O)(=O)c3ccccc3)c(N)[nH]c12` [Example 12, 7-(benzenesulfonyl)-4-(prop-1-en-2-yl)-5H-pyrrolo[3,2-d]pyrimidin-6-amine] the figure was 355 nM.
As to `CNc1nc(N2CCOC(C)C2)c2[nH]c(N)c(S(=O)(=O)c3ccccc3F)c2n1` (stereo not drawn) [Example 298, 7-(2-fluorobenzenesulfonyl)-N2-methyl-4-(2-methylmorpholin-4-yl)-5H-pyrrolo[3,2-d]pyrimidine-2,6-diamine], the half-maximal effective concentration (EC50) came out at 5 nM.
With `CCC1CN(c2ncnc3c(S(=O)(=O)c4ccccc4)c(N)[nH]c23)CCS1` (stereo not drawn) [Example 196, 7-(benzenesulfonyl)-4-(2-ethylthiomorpholin-4-yl)-5H-pyrrolo[3,2-d]pyrimidin-6-amine], the EC50 amounted to 10 nM.
`Cc1nc(N2CCO[C@H](C(F)(F)F)C2)c2[nH]c(N)c(S(=O)(=O)c3ccccc3F)c2n1` [Example 281, 7-(2-fluorobenzenesulfonyl)-2-methyl-4-[(2S)-2-(trifluoromethyl)morpholin-4-yl]-5H-pyrrolo[3,2-d]pyrimidin-6-amine] registered an EC50 of 1 nM.
With `C[C@@H](Oc1ncnc2c(S(=O)(=O)c3ccccc3)c(N)[nH]c12)c1ccccn1` [Example 162, 7-(benzenesulfonyl)-4-[(1R)-1-(pyridin-2-yl)ethoxy]-5H-pyrrolo[3,2-d]pyrimidin-6-amine] the figure was 141 nM.
`Nc1[nH]c2c(C3=CCCCC3)ncnc2c1S(=O)(=O)C1CCOCC1` [Example 61, 4-(cyclohex-1-en-1-yl)-7-(oxane-4-sulfonyl)-5H-pyrrolo[3,2-d]pyrimidin-6-amine] displayed an EC50 of 3470 nM.
On to `Cc1cccc(-c2nc(C)nc3c(S(=O)(=O)c4ccccc4)c(N)[nH]c23)c1` [Example 148, 7-(benzenesulfonyl)-2-methyl-4-(3-methylphenyl)-5H-pyrrolo[3,2-d]pyrimidin-6-amine], for which the half-maximal effective concentration (EC50) is 14 nM.
In the case of `CC1(C)CCN(c2ncnc3c(S(=O)(=O)c4ccccc4)c(N)[nH]c23)C1` [Example 47] it was 358 nM; in that of `Cc1nc(N2CCOC(C)C2)c2[nH]c(N)c(S(=O)(=O)c3cccc(F)c3)c2n1` (stereo not drawn) [Example 180, 7-(3-fluorobenzenesulfonyl)-2-methyl-4-(2-methylmorpholin-4-yl)-5H-pyrrolo[3,2-d]pyrimidin-6-amine], 43 nM.
In the case of `COc1nc(N2CCOC(C)C2)c2[nH]c(N)c(S(=O)(=O)c3ccccc3F)c2n1` (stereo not drawn) [Example 271, 7-(2-fluorobenzenesulfonyl)-2-methoxy-4-(2-methylmorpholin-4-yl)-5H-pyrrolo[3,2-d]pyrimidin-6-amine] it was 8 nM; in that of `Cc1nc(N2CCO[C@@H](C)C2)c2[nH]c(N)c(S(=O)(=O)c3ccc(Br)cc3N3CCO[C@@H](C)C3)c2n1` [Example 240, 7-{4-bromo-2-[(2S)-2-methylmorpholin-4-yl]benzenesulfonyl}-2-methyl-4-[(2S)-2-methylmorpholin-4-yl]-5H-pyrrolo[3,2-d]pyrimidin-6-amine], 125 nM.
With `Nc1[nH]c2c(C3CCCCC3)ncnc2c1S(=O)(=O)c1ccc(F)c(F)c1` [Example 60, 4-cyclohexyl-7-(3,4-difluorobenzenesulfonyl)-5H-pyrrolo[3,2-d]pyrimidin-6-amine] the figure was 182 nM; with `CC1CC(Oc2ncnc3c(S(=O)(=O)c4ccccc4)c(N)[nH]c23)CC(C)O1` (stereo not drawn) [Example 210, 7-(benzenesulfonyl)-4-[(2,6-dimethyloxan-4-yl)oxy]-5H-pyrrolo[3,2-d]pyrimidin-6-amine], 156 nM; with `Cc1nc(N2CCO[C@@H](C)C2)c2[nH]c(N)c(S(=O)(=O)c3ccc(Cl)cc3F)c2n1` [Example 235, 7-(4-chloro-2-fluorobenzenesulfonyl)-2-methyl-4-[(2S)-2-methylmorpholin-4-yl]-5H-pyrrolo[3,2-d]pyrimidin-6-amine], 2 nM.
The molecule `CC1(C)CCCN1c1ncnc2c(S(=O)(=O)c3ccccc3)c(N)[nH]c12` [Example 56, 7-(benzenesulfonyl)-4-(2,2-dimethylpyrrolidin-1-yl)-5H-pyrrolo[3,2-d]pyrimidin-6-amine] yielded an EC50 of 18 nM. Against the preceding molecule, the EC50 is about 9-fold higher.
`Nc1[nH]c2c(OCC3CCOC3)ncnc2c1S(=O)(=O)c1ccccc1` (stereo not drawn) [Example 119, 7-(benzenesulfonyl)-4-(oxolan-3-ylmethoxy)-5H-pyrrolo[3,2-d]pyrimidin-6-amine] displayed a half-maximal effective concentration (EC50) of 2960 nM.
`COc1ccc(S(=O)(=O)c2c(N)[nH]c3c(N4CCC5(CC4)CC5)ncnc23)cc1` [Example 72, 4-{6-azaspiro[2.5]octan-6-yl}-7-(4-methoxybenzenesulfonyl)-5H-pyrrolo[3,2-d]pyrimidin-6-amine] registered an EC50 of 26 nM.
Regarding `Nc1[nH]c2c(C3CCCCC3)ncnc2c1S(=O)(=O)C1CCCCC1` [Example 51, 7-(cyclohexanesulfonyl)-4-cyclohexyl-5H-pyrrolo[3,2-d]pyrimidin-6-amine], the EC50 came out at 162 nM.
As to `Cc1nc(OC(C)C)c2[nH]c(N)c(S(=O)(=O)c3ccccc3F)c2n1` [Example 272, 7-(2-fluorobenzenesulfonyl)-2-methyl-4-(propan-2-yloxy)-5H-pyrrolo[3,2-d]pyrimidin-6-amine], the EC50 came out at 34 nM.
With `Nc1[nH]c2c(C3CCCC3)ncnc2c1S(=O)(=O)c1ccccc1` [Example 23, 7-(benzenesulfonyl)-4-cyclopentyl-5H-pyrrolo[3,2-d]pyrimidin-6-amine] the figure was 97 nM; with `Nc1[nH]c2c(C3=CCCCC3)ncnc2c1S(=O)(=O)c1ccc(Cl)cc1` [Example 21, 7-[(4-chlorobenzene)sulfonyl]-4-(cyclohex-1-en-1-yl)-5H-pyrrolo[3,2-d]pyrimidin-6-amine], 54 nM; with `Cc1nc(N2CCOC3(CC3)C2)c2[nH]c(N)c(S(=O)(=O)c3ccccc3F)c2n1` [Example 208, 7-(2-fluorobenzenesulfonyl)-2-methyl-4-{4-oxa-7-azaspiro[2.5]octan-7-yl}-5H-pyrrolo[3,2-d]pyrimidin-6-amine], 3 nM.
On to `COc1ccc(S(=O)(=O)c2c(N)[nH]c3c(N4CCOC(C)C4)ncnc23)cc1` (stereo not drawn) [Example 107, 7-(4-methoxybenzenesulfonyl)-4-(2-methylmorpholin-4-yl)-5H-pyrrolo[3,2-d]pyrimidin-6-amine], for which a half-maximal response (EC50) required 41 nM.
